This is an account of results in ChEMBL document CHEMBL3044667, “Insecticidal activities of crude extracts and phospholipids from Chenopodium ficifolium against melon and cotton aphid, Aphis gossypii” (2010).

Structures are written as SMILES. The source made the active and inactive calls. The calls are words filed in the database; no cut-off is given here.

The subject of experiment [1] is Aphis gossypii. The experiment can be described thus: Insecticidal activity against Aphis gossypii (cotton aphid) infested fourth-leaf stage cucumber seedlings followed by compound exposure at 1000 ug/ml assessed as induction of insect death on leaves after 48 hr post compound treatment relative to untreated control. Format: functional, organism-based.
Experiment [2] relates to Aphis gossypii. The experiment can be described thus: Insecticidal activity against Aphis gossypii (cotton aphid) infested fourth-leaf stage cucumber seedlings followed by compound exposure assessed as insect control after 48 hr post compound treatment relative to untreated control. Format: functional, organism-based.

With `CCCCCCCCCCCCC=CCC(=O)OC(COC(=O)CCCCCCCCCCCCCCC)COP(=O)(O)OCC(O)CO` (configuration not stated), in experiment [1], the result was Active. Further, the Activity result in experiment [2] was “Dose-dependent effect”.
